{"source": "patent US9371570B2", "about": "“Mutant calreticulin for the diagnosis of myeloid malignancies” (CeMM—FORSCHUNGSZENTRUM FÜR MOLEKULARE MEDIZIN GmbH, priority 2013, dated 2016)", "system": "Ba/F3 cells expressing the empty vector (GFP), CALR wild type (CALR wt-GFP) or CALR mutant (CALR del52-GFP)", "assay": "Sensitivity of Ba/F3 cells to SAR302503 (CellTiter-Glo cell viability)", "type": "cell-based, murine", "details": "Ba/F3 CALR wild type vs CALR 52 base pair deletion mutant; 48 hours; dilution series, highest concentration 40 μM; 10 ng/ml interleukin-3; listed as JAK2 kinase inhibitor", "method": "FIG. 7: The sensitivity of Ba/F3 cells to SAR302503. Ba/F3 cells expressing the empty vector (GFP), CALR wild type (CALR wt-GFP) or CALR mutant (CALR del52-GFP) were analyzed by defining cell viability after 48 hours in presence of […] SAR302503. For relative viability, relative luminescence units were normalized to the DMSO control. Error bars represent standard error of the mean.\nThe retrovirus was generated and cells were transduced as described before (Zuber et al, 2013). Briefly, PlatE cells (75% confluent in a 10 cm dish) were transfected with 20 μg of the respective viral vector using the Calcium Phosphate Transfection Kit (Sigma #CAPHOS). The medium was changed after 24 hours and viral supernatant was collected at 36, 40, 44 and 60 hours after transfection. […] The cells were analyzed for transduction efficiency by flow cytometry, 48 hours after the final transduction step. The GFP positive cells were sorted by FACS and the sorting efficiency was analyzed by flow cytometry.\nTo define the sensitivity to the inhibitor SAR302503 (Sanofi), Ba/F3 cells were plated in 96-well plates at 25000 cells per well in triplicates on a dilution series of SAR302503 (highest concentration 40 μM) and in presence of 10 ng/ml interleukin-3. After 48 hours cell viability was determined by the CellTiter-Glo® Luminescent Cell Viability Assay (Promega)."}
{"smiles": "Cc1cnc(Nc2ccc(OCCN3CCCC3)cc2)nc1Nc1cccc(S(=O)(=O)NC(C)(C)C)c1", "note": "[SAR302503]", "values": [{"measurement": "sensitivity of cells to the JAK2 kinase inhibitor SAR302503 (relative cell viability)", "result": "suppressed equally"}]}
